Paper PMC8509676, “Residual Helicity at the Active Site of the Histidine Phosphocarrier, HPr, Modulates Binding Affinity to Its Natural Partners” (International Journal of Molecular Sciences, 2021)
Read-outs that look alike come from different tables or passages of the source.

T1: N-terminal domain of EI from Streptomyces coelicolor (EIN^sc) (Streptomyces coelicolor)
T1 chain: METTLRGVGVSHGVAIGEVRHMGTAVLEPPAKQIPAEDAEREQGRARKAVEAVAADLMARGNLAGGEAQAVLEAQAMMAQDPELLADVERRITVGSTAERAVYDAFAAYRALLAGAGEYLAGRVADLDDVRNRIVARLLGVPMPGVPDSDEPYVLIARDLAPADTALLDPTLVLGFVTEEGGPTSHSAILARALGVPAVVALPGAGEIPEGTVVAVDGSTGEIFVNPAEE

T2: Regulator of sigma D from Escherichia coli (Rsd^ec) (E. coli, UniProt P0AFX4 1-158)
T2 construct: Rsd (regulator of sigma D), anti-sigma factor of sigma 70, E. coli; 158-residue-long protein; called 'intact Rsd' in the abstract and 'wild-type Rsd vector' in the methods; Vector was a gift from Ann Hochschild; source: E. coli C41, purified as described [24,50]
T2 sequence (looked up): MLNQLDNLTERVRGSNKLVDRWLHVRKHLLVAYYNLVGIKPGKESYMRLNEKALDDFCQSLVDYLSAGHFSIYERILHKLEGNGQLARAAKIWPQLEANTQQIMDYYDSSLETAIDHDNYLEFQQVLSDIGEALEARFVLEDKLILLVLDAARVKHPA

B1: HPr^9–30 wild-type peptide (residues 9-30 of HPr from Streptomyces coelicolor) (peptide)
peptide: Ac-GWAEGLHARPASIFVRAATATG-NH2
notes: HPr (histidine phosphocarrier) of Streptomyces coelicolor, HPr^sc, residues 9-30; first letter printed as G^9; The limit residues are printed as Gly9-Ala30 (abstract) and Ala9-Gly30 (introduction); source: synthetic peptide, bought: NZYTech (purity >95%)
B2: HPr^9–30 V23A peptide (peptide)
peptide: Ac-GWAEGLHARPASIFARAATATG-NH2
notes: HPr of Streptomyces coelicolor, residues 9-30, with V23A; source: synthetic peptide, bought: NZYTech (purity >95%)
B3: HPr^9–30 P18A/I21A/V23A peptide (peptide)
peptide: Ac-GWAEGLHARAASAFARAATATG-NH2
notes: HPr of Streptomyces coelicolor, residues 9-30, with P18A, I21A and V23A; also called triple-mutant; source: synthetic peptide, bought: NZYTech (purity >95%)
B4: HPr^9–30 P18A peptide (peptide)
peptide: Ac-GWAEGLHARAASIFVRAATATG-NH2
notes: HPr of Streptomyces coelicolor, residues 9-30, with P18A; source: synthetic peptide, bought: NZYTech (purity >95%)
B5: HPr^9–30 I21A peptide (peptide)
peptide: Ac-GWAEGLHARPASAFVRAATATG-NH2
notes: HPr of Streptomyces coelicolor, residues 9-30, with I21A; source: synthetic peptide, bought: NZYTech (purity >95%)
B6: HPr^9–30 P18A/I21A/F22A/V23A peptide (peptide)
peptide: Ac-GWAEGLHARAASAAARAATATG-NH2
notes: HPr of Streptomyces coelicolor, residues 9-30, with P18A, I21A, F22A and V23A; also called quadruple-mutant; source: synthetic peptide, bought: NZYTech (purity >95%)

Legend:
[1] = molecular target: T3, Rsd^ec (Escherichia coli, UniProt P0AFX4); test: Isothermal titration calorimetry (ITC), peptide/Rsd^ec binding; settings: ITC, 25 °C; for ΔH, Rsd^ec: 50 mM Tris pH 7.0
T3 construct: His-tag; made in house; host or cells: E. coli C41
Experimental: The experimental set-up and data processing of ITC experiments has been described previously. Rsd^ec or EIN^sc (at 10–20 µM) were injected into the cell, and the peptides in the syringe (100–200 µM) in 50 mM of Tris buffer, pH 7.0. The temperature for all the experiments was 25 °C. Typically, each calorimetric titration consisted of performing 19 injections with 2 μL volume, with a time spacing of 150 s, while stirring at 750 rpm in an Auto-iTC200 high-sensitivity microcalorimeter (MicroCal, Malvern-Panalytical, Malvern, UK). The results were analysed by applying a model that considered a single binding site (assuming a 1:1 stoichiometry) for the peptide/EIN^sc or peptide/Rsd^ec interaction using a nonlinear least-squares regression analysis in Origin 7.0 (OriginLab, Northampton, MA, USA) with user-defined fitting routines.

[2] = system: Staphylococcus aureus CECT59; format: cell-based
Experimental: The CECT59 strain of the Gram-positive bacteria Staphylococcus aureus from the Spanish Type Culture Collection (Colección Española de Cultivos Tipo, CECT, Universitat de Valencia, Spain) was used for determining its sensitivity to the HPr peptides studied in this work. The MIC for each peptide was determined by the two-fold broth microdilution method according to the Clinical and Laboratory Standards Institute (CLSI) guidelines, with some modifications as previously described. For this testing procedure, a bacteria colony previously grown in MH agar plates was isolated and incubated in MH broth at 37 °C overnight to prepare the bacteria inoculum to be used in each assay. Then, the bacteria suspensions were adjusted to a 100× dilution of an 0.5 McFarland turbidity standard in MH broth and incubated with different concentrations of each peptide in round-bottom 96-well polystyrene plates (Deltalab S.L., Rubí, Spain) (50 μL/well) for 24 h at 37 °C. The peptide concentrations employed comprised two-fold dilutions starting at either 120, 160, or 400 µM, depending on the experiment. […] All assays were performed in triplicate.

[3] = Far-UV CD, helicity from molar ellipticity at 222 nm; format: physicochemical; settings: 5 °C; for [Θ]^222 (value in parentheses): 50 mM Tris pH 7.0; for Helicity (%): 50 mM Tris pH 7.0, from [Θ]^222 assuming −39,500 deg cm^2 dmol^−1 for a fully formed α-helix
Experimental: Spectra were collected on a Jasco J810 spectropolarimeter (Jasco, Tokyo, Japan) interfaced with a Peltier unit. Far-UV measurements were performed with samples placed in quartz cells with a 0.1 cm path length (Hellma, Kruibeke, Belgium), with a response time of 2 s, a band width of 1 nm, and a scan velocity of 50 nm/min. For all peptides, a wide range of concentrations (10–50 µM) was used to determine whether either the shape or the intensity of the spectra was concentration-dependent. None of those features changed in the concentration range explored. The experiments in aqueous solution were acquired at 5 °C in Tris buffer (50 mM, pH 7.0). Raw ellipticity was converted to molar ellipticity, [Θ], from which the fraction of helical populations was determined as previously described. For the experiments in the presence of each protein (repeated three times), the same concentration used in the fluorescence experiments was used, and the experimental set-up was the same as described above for the isolated peptides.

[4] = TFE titration followed by far-UV CD (disordered-helical two-state equilibrium); format: physicochemical; settings: for [TFE]1/2 / m: TFE titration by far-UV CD, 20 µM peptide, two-state fit, fitting errors; for percentage of helical population (in parentheses): from ∆G^water assuming a two-state conformational equilibrium; for ∆G^water: product of m- and [TFE]1/2 values, error propagation
Experimental: For experiments in the presence of TFE, the same set of experimental parameters was used. Cosolvent concentrations were indicated in percentage of volume (%). […] The peptide concentration for these experiments was 20 µM.

[5] = Translational diffusion NMR (DOSY); format: physicochemical; settings: for D (translational diffusion coefficient): DOSY, 10 °C, 100% D2O, 70-120 µM peptide, fitting errors, repeated twice; for Rh (in parentheses, from DOSY): from comparison with the Rh of dioxane (2.12 Å)
Experimental: (b) Translational diffusion NMR (DOSY): Peptide concentrations were the same as those used in the 1D-^1H-NMR spectra. Translational self-diffusion measurements were performed with the pulsed-gradient spin-echo sequence in the presence of 100% D2O. The following relationship existed between the translational self-diffusion coefficient, D, and the delays used during experiment acquisition:(2) I/I0=−exp(DγH2δ^2G^2(Δ−δ/3−τ/2)) where I is the peak intensity of a particular resonance (or a group of them) at any gradient strength; I0 is the maximum peak intensity of the same resonance(s) at the smallest gradient strength (that is, at 2% of the total power of the gradient coil); D is the translational self-diffusion constant (in cm^2 s^−1); δ is the duration (in s) of the gradient; G is the gradient strength (in T cm^−1); ∆ is the time (in s) between the gradients; γH is the gyromagnetic constant of the proton (in rad s^−1 T^−1); and τ is the recovery delay between the bipolar gradients (100 µs in our experiments). The gradient strength (G) was varied in 16 lineal steps, between 2 and 95% of the total power of the gradient coil of the probe. The gradient strength was calibrated by using the value of D for the residual proton water line in a sample containing 100% D2O placed in a 5 mm tube [42]. Data were plotted as I/I0 versus G^2, and the exponential factor of the curve was:(3) DγH2δ^2(Δ−δ/3−τ/2) from which D can be obtained. The duration of the gradient (δ) was 2.25 ms, and the time between the two gradients (∆) was set to 200 ms. The signal from the methyl groups between 1.1 and 0.70 ppm were used for integration of the intensity. A final concentration of 1% of dioxane was added to each peptide; the hydrodynamic radius, Rh, of each peptide was obtained for comparison by assuming that the Rh of dioxane was 2.12 Å [42]. The DOSY experiment was repeated twice with fresh samples for each peptide.

[6] = molecular target: T1, N-terminal domain of EI from …; test: other fluorescence titration; peptide 0–30 µM added to 3 µM Rsd^ec or EIN^sc; 50 mM Tris, pH 7.0, 25 °C; samples left overnight at 5 °C; blank of peptide subtracted; settings: both partners purified
[7] = molecular target: T2, Regulator of sigma D from Escherichia …; test: ITC; Rsd^ec or EIN^sc (10–20 µM) in the cell, peptide (100–200 µM) in the syringe; 50 mM Tris, pH 7.0, 25 °C; single binding-site model, 1:1 stoichiometry assumed; settings: both partners purified
[8] = molecular target: T1, N-terminal domain of EI from …; test: as above; settings: both partners purified
[9] = S. aureus CECT59, two-fold broth microdilution (CLSI), MH broth, 24 h, 37 °C, triplicate (sd = 0), highest concentration tested 400 µM

Molecule | ΔH, Rsd^ec [1] | [Θ]^222 (value in parentheses) [3] | Helicity (%) [3] | [TFE]1/2 [4] | m [4] | percentage of helical population (in parentheses) [4] | ∆G^water [4] | D (translational diffusion coefficient) [5] | Rh (in parentheses, from DOSY) [5] | Kd [6] | Kd [7] | dH [7] | Kd [8] | dH [8] | also measured
Ac-GWAEGLHARAASAFARAATATG-NH2 [P18A/I21A/V23A] | 0.6 ± 0.4 kcal/mol | −2698.61 deg cm^2 dmol^−1 | 6.8% | 19.0 ± 0.9 % (v/v) | 184 ± 32 cal/mol (% (v/v)) | 0.17% | 3.5 ± 0.6 kcal/mol | 2.5 ± 0.4 cm^2 s^−1 × 10^6 | 9 ± 2 Å |  |  |  |  |  | Kd ([1]; 50 mM Tris pH 7.0, single binding-site model, read-out: Kd, Rsd^ec (ITC)): 2600 ± 400 nM; MIC ([2]; CECT59, 24 h): 60 µM
Ac-GWAEGLHARAASIFVRAATATG-NH2 [Peptide P18A] | 1.1 ± 0.4 kcal/mol | −1135.47 deg cm^2 dmol^−1 | 2.9% | 19.8 ± 0.4 % (v/v) | 181 ± 17 cal/mol (% (v/v)) | 0.15% | 3.6 ± 0.3 kcal/mol | 2.0 ± 0.1 cm^2 s^−1 × 10^6 | 11 ± 1 Å |  |  |  |  |  | MIC [2, 9]: 120 µM
Ac-GWAEGLHARPASIAVRAATATG-NH2 [Peptide F22A] | 1.1 ± 0.5 kcal/mol | −84.95 deg cm^2 dmol^−1 | 0.2% | 22 ± 1 % (v/v) | 134 ± 27 cal/mol (% (v/v)) | 0.5% | 2.9 ± 0.6 kcal/mol | 1.83 ± 0.03 cm^2 s^−1 × 10^6 | 11 ± 1 Å |  |  |  |  |  | MIC [2, 9]: 400 µM
B1 |  |  |  |  |  |  |  |  |  | 10000 nM | 1400 ± 300 nM | 1.3 ± 0.4 kcal/mol | 2300 ± 400 nM | -0.8 ± 0.4 kcal/mol | 
B2 |  |  |  |  |  |  |  |  |  | 9000 nM | 8300 ± 900 nM | -0.8 ± 0.5 kcal/mol | 9100 ± 900 nM | -6.6 ± 0.5 kcal/mol | 
B3 |  |  |  |  |  |  |  |  |  |  | 2600 ± 400 nM | 0.6 ± 0.4 kcal/mol |  |  | 
B4 |  |  |  |  |  |  |  |  |  |  | 2200 ± 400 nM | 1.1 ± 0.4 kcal/mol |  |  | 
B5 |  |  |  |  |  |  |  |  |  |  |  | 1 ± 0.4 kcal/mol |  |  | 
B6 |  |  |  |  |  |  |  |  |  | 11000 nM |  | 4.3 ± 0.5 kcal/mol | 1100 ± 200 nM | 0.2 ± 0.4 kcal/mol | 
